Source: ChEMBL document CHEMBL1201862, “PubChem BioAssay data set” (2004)
One block for each compound: values may come before it. Activity calls are given as the source filed them. Unless noted, the calls are words filed in the database; no cut-off is given here.

Key:
[1] = target: T1, E3 ubiquitin-protein ligase XIAP (Homo sapiens, UniProt P98170); assay: Counter Screen using XIAP-Bir3 for Chemical Antagonists of Bir1/2 domains of IAP-family anti-apoptotic proteins. [Related pubchem assays (depositor defined):AID1018, AID1449, AID1514, AID1638, AID1749, AID1750, AID488957, AID488963]
[2] = target: T1, E3 ubiquitin-protein ligase XIAP; assay: XIAP antagonists, biochemical, IAP family, fluorescence polarization (AID 1018); assay type: functional
[3] = Luminescence Cell-Based Dose Confirmation HTS to Identify Inhibitors of Platelet Dense Granule Release. [Related pubchem assays: 1663 (Primary HTS), 1678 (Summary of Project)]; assay type: functional
[4] = target: Luciferin 4-monooxygenase (Photinus pyralis, UniProt P08659); assay: firefly luciferase enzyme inhibitors, dose response, biochemical, luminescence (AID 1891)
[5] = target: T2, Tyrosine-protein phosphatase non-receptor type 7 (Homo sapiens, UniProt P35236); assay: redox-dependent HePTP inhibition, mechanism study, biochemical, fluorescence (AID 2068); assay type: functional
T2 sequence (P35236 whole entry): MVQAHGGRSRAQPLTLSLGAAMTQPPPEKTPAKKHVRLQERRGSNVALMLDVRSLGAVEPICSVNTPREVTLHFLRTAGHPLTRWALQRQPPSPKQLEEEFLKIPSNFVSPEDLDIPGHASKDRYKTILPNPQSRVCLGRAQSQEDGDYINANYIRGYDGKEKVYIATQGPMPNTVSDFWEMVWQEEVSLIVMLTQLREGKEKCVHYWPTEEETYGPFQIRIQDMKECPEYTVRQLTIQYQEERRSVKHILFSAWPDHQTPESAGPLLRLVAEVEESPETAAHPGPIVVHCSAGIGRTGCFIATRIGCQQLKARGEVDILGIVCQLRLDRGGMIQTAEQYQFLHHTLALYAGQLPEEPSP

Mu-type opioid receptor = Mu-type opioid receptor (Homo sapiens, UniProt P35372); assay: SAR Analysis of Antagonists of the MOR Receptor using an Image-Based Assay - Set 3. [Related pubchem assays (depositor defined):AID1777, AID1785, AID1786, AID1966, AID2133, AID2136, AID2284, AID2285, AID2420]; assay type: functional
[6] = target: T3, Kappa-type opioid receptor (Homo sapiens, UniProt P41145); assay: SAR analysis of small molecule antagonists of the kappa opioid receptor via a luminescent beta-arrestin assay - Set 4. [Related pubchem assays (depositor defined):AID1777, AID1778, AID1785, AID1786, AID1966, AID2133, AID2136, AID2285]; assay type: functional
[7] = target: T3, Kappa-type opioid receptor; assay: SAR analysis of Antagonists of the Kappa Opioid Receptor (KOR) using an Image-Based Assay - Set 4. [Related pubchem assays (depositor defined):AID1777, AID1785]; assay type: functional
[8] = target: Delta-type opioid receptor (Homo sapiens, UniProt P41143); assay: SAR Analysis of Antagonists of the DOR Receptor using an Image-Based Assay - Set 3. [Related pubchem assays (depositor defined):AID1777, AID1785]; assay type: functional;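 further: U2OS cells expressing DOR1 and beta-arrestin GFP stimulated with 100 nM SNC80; imaging of GFP-tagged beta-arrestin moving into spots after receptor activation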
[9] = target: T4, Heat shock factor protein 1 (Mus musculus, UniProt P38532); assay: HSF1 potentiators in luciferase reporter cells, confirmation, cell-based, NIH3T3, luminescence, dose retest (AID 435004); assay type: functional;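 further: stress induced by proteasome inhibitor MG132 added 30 min after compound; luciferase reporter driven by HSF1 response element in NIH3T3 cells; actives raise luminescence as potentiators of the MG132 stress response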
T4 sequence (P38532 whole entry): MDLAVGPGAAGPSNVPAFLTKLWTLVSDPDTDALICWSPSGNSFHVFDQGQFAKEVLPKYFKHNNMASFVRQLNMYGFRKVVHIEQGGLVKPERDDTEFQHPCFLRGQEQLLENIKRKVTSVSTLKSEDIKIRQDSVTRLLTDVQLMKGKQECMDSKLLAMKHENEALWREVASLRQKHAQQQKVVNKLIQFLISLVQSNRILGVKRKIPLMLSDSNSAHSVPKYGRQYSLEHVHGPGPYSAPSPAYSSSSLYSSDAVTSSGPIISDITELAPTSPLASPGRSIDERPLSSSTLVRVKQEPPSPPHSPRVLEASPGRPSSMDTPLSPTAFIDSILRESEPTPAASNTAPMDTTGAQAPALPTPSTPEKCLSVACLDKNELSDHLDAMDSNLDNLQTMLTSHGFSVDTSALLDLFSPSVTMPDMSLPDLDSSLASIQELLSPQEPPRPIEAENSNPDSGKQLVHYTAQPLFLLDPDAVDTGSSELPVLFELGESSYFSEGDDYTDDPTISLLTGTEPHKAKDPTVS

[10] = target: Induced myeloid leukemia cell differentiation protein Mcl-1 (Homo sapiens, UniProt Q07820); assay type: functional
Troponin, cardiac muscle = Troponin, cardiac muscle (Homo sapiens, UniProt P19429+P45379+P63316); assay: Fluorescence-based biochemical high throughput dose response assay for activators of the calcium sensitivity of cardiac Regulated Thin Filaments (RTF). [Related pubchem assays (depositor defined):AID493008, AID493018, AID504382, AID504383]; assay type: protein-complex assay
NADPH oxidase 3 = NADPH oxidase 3 (Homo sapiens, UniProt Q9HBY0); assay: PubChem AID 435013
NADPH oxidase 2 = NADPH oxidase 2 (Homo sapiens, UniProt P04839); assay: PubChem AID 435013
NADPH oxidase 1 = NADPH oxidase 1 (Homo sapiens, UniProt Q9Y5S8); assay: Late stage results from the probe development effort to identify inhibitors of NOX1: HEK/293 IC50. [Related pubchem assays: 1796 (Summary AID (NOX1)), 2752 (Primary screen (NOX1 inhibitors, synthesized analogs set 2)), 2664 (Primary screen (NOX1 inhibitors, synthesized analogs)), 1792 (Primary Screen (NOX1)), 2545 (Confirmation screen (NOX1 …; assay type: functional
NADPH oxidase 4 = NADPH oxidase 4 (Homo sapiens, UniProt Q9NPH5); assay: PubChem AID 435013
Sequence of NADPH oxidase 4 (Q9NPH5 whole entry): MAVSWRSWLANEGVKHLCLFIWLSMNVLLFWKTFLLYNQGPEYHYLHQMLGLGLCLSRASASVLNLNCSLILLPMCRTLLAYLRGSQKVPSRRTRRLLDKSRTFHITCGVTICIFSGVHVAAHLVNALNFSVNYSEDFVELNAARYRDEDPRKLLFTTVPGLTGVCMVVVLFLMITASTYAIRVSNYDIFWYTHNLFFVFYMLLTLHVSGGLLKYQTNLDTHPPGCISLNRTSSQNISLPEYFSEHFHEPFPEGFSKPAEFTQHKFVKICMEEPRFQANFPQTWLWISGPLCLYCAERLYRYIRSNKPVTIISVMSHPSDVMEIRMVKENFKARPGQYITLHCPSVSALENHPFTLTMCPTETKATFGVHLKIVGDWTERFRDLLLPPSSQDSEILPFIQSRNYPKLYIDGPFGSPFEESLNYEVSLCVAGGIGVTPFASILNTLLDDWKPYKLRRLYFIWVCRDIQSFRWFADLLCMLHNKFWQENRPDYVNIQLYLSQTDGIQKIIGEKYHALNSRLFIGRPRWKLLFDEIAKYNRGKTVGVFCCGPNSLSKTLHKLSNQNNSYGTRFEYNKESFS

T3 sequence (P41145 whole entry): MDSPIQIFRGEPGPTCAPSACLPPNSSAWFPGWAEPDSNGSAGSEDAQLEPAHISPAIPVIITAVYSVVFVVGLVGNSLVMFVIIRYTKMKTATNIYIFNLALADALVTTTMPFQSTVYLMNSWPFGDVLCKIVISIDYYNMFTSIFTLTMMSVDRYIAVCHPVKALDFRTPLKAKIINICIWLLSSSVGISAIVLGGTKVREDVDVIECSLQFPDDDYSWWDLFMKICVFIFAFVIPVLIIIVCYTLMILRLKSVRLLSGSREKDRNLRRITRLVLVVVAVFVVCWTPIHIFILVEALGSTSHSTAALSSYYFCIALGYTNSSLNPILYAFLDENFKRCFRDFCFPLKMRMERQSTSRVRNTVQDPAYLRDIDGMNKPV
T1 sequence (P98170 whole entry): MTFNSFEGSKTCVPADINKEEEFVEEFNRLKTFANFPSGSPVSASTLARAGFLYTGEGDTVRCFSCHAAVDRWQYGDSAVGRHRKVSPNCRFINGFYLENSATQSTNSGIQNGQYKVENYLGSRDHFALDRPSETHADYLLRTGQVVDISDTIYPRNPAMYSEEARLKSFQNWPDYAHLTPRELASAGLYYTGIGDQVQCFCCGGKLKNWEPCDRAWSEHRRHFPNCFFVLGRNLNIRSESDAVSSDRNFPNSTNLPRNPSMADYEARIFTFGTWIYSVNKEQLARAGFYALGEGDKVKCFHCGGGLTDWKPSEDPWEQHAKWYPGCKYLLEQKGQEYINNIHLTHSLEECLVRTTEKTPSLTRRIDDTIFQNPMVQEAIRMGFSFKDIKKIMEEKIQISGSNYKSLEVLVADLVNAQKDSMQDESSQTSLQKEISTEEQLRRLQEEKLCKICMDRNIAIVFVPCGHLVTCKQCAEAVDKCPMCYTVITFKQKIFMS
Sequence of NADPH oxidase 1 (Q9Y5S8 whole entry): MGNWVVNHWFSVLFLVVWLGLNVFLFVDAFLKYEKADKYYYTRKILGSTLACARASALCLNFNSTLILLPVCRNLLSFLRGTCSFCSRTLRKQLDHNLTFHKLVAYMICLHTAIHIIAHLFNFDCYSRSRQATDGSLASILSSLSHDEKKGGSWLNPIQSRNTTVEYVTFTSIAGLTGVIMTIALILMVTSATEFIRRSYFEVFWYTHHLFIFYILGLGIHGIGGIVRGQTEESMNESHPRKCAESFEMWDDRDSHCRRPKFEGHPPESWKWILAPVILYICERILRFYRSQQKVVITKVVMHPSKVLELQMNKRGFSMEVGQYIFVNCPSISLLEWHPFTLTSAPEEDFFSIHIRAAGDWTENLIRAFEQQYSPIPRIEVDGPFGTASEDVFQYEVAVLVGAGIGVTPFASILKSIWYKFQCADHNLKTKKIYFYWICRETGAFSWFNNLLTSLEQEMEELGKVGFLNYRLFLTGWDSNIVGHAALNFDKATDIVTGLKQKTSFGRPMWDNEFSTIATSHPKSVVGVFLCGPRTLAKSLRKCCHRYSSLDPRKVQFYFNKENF
Sequence of NADPH oxidase 3 (Q9HBY0 whole entry): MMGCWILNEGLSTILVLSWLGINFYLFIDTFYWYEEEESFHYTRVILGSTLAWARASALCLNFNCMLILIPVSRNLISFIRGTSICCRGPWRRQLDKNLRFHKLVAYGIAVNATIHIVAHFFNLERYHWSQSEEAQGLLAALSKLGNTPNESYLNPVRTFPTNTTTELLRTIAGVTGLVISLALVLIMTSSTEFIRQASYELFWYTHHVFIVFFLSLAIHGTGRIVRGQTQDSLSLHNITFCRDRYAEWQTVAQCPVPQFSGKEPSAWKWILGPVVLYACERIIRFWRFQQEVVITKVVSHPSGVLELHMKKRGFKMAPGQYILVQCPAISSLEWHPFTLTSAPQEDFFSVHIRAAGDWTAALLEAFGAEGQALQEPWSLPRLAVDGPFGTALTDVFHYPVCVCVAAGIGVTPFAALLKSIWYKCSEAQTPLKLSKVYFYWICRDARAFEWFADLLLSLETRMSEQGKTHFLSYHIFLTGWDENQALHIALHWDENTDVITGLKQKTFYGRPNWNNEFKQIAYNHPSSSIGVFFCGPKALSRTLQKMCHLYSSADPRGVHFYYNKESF
Sequence of Mu-type opioid receptor (P35372 whole entry): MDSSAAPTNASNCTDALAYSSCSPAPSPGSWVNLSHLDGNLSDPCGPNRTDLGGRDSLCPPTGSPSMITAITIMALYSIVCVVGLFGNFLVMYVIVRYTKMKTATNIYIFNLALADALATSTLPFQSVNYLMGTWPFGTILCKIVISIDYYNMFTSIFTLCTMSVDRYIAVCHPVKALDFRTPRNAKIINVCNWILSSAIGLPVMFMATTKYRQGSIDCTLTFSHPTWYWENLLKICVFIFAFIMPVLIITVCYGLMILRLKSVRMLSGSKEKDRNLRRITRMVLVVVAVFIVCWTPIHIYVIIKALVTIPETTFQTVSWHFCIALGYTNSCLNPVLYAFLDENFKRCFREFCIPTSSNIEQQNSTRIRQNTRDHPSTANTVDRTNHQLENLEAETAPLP
Sequence of Induced myeloid leukemia cell differentiation protein Mcl-1 (Q07820 whole entry): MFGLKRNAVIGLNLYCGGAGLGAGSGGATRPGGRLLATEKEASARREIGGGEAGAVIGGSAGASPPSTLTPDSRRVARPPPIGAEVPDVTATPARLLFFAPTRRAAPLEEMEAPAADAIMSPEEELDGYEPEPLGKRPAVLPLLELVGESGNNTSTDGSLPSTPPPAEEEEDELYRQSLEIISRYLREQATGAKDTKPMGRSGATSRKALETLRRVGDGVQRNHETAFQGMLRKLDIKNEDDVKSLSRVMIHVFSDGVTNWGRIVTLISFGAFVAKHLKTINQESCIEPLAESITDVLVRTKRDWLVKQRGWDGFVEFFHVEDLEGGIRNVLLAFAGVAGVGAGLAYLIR
Sequence of Luciferin 4-monooxygenase (P08659 whole entry): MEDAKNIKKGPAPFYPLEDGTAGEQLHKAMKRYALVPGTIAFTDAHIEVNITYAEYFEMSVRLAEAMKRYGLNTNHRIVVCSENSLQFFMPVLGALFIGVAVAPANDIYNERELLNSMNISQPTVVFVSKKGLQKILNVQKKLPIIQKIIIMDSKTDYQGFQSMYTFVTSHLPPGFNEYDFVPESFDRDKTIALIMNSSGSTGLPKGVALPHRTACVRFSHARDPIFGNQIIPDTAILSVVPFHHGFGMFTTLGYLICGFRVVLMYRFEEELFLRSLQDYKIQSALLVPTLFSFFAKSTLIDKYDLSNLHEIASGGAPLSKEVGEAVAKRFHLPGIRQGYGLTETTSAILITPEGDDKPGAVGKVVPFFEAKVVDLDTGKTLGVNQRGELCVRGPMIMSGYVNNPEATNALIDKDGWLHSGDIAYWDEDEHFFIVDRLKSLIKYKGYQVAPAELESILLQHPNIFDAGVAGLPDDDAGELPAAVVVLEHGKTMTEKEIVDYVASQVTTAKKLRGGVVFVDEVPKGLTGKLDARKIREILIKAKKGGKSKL
Sequence of NADPH oxidase 2 (P04839 whole entry): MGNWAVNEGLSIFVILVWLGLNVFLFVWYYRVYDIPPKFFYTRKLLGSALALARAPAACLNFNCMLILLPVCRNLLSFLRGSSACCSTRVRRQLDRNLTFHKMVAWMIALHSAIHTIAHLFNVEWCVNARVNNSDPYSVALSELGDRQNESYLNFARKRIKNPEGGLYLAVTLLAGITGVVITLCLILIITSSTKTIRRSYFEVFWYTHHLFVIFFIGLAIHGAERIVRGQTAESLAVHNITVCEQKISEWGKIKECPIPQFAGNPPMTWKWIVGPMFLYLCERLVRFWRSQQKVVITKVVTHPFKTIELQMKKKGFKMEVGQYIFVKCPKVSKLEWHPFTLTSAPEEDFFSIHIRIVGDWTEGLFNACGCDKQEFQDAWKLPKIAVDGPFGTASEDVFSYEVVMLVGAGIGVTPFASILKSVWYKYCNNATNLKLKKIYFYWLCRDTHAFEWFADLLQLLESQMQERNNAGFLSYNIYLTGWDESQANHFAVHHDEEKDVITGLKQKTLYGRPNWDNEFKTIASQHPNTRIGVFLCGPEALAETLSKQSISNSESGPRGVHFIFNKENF
Sequence of Delta-type opioid receptor (P41143 whole entry): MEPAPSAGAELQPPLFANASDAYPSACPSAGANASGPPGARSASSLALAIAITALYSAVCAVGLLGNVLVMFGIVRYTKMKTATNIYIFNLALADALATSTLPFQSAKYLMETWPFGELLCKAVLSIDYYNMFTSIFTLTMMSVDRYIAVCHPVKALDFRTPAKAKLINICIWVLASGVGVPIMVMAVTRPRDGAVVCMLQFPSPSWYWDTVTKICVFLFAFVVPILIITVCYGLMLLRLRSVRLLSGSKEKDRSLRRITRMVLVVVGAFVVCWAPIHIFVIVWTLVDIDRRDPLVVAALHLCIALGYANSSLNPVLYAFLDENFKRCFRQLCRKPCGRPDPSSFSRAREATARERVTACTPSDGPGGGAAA

Compound: Cc1ccnc(N2C(=O)c3ccccc3C2O)c1 (stereo unspecified)
IC50 [1]: > 100 µM (inactive) | IC50 [2]: > 100 µM (not active) | EC50 [3]: 6.49 µM (active) | EC50 [4]: 27.7 µM (active)

Compound: COc1ccc(N/C=C2\C(=O)CCc3c2oc2cc(Cl)c(O)c(Cl)c32)cc1
EC50 [9]: > 260 µM (inactive) | IC50 [10]: 4.32 µM (active) | EC50 (Troponin, cardiac muscle): 3.93 µM (active)

More lines, now with the values ahead:

IC50 [5]: 1.01 µM (active)
Compound: CCCNC(=O)Nc1ccc2nc(-c3ccco3)c(-c3ccco3)nc2c1

IC50 (Mu-type opioid receptor): > 32 µM (inactive) | IC50 [6]: 2 µM (active) | IC50 [7]: 2.25 µM (active) | IC50 [8]: > 32 µM (inactive)
Compound: CCCc1ccc(S(=O)(=O)NCc2ccc(C(=O)NCCN(Cc3ccccc3)C(C)C)cc2)cc1

IC50 (NADPH oxidase 3): 7.5 µM (active) | IC50 (NADPH oxidase 2): 9 µM (active) | IC50 (NADPH oxidase 1): 1 µM (active) | IC50 (NADPH oxidase 4): 5 µM (active)
Compound: FC(F)(F)c1ccc2c(c1)Nc1ccccc1S2
